IC50 data for 22 molecules are collected here from patent US10059701B2 (Merck Patent GmbH, priority 2015, dated 2018).

For one experiment, the target named is T1, IRAK1 (Homo sapiens, UniProt P51617).
T1 construct: His-TEV-IRAK1 (194-712); His (N); TEV cleavage site (N)
The experiment in a line: IRAK1 enzymatic assay (ADP-Glo luminescence). The format is biochemical. The settings on record: purified human recombinant His-TEV-IRAK1 (194-712). In short, it runs like this:
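Recombinant human His-TEV-IRAK1 (194-712), 0.3 μg/ml, preincubated 15 min at RT with compounds (10 μM to 0.5 nM) in 50 mM Hepes pH 7.0, 10 mM MgCl2, 2 mM DTT, 0.1% BSA. ATP-started reaction run 2 hours at RT; ADP formed from ATP hydrolysis/autophosphorylation read by ADP-Glo luminescence.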

The next experiment concerns the target T2, IRAK4 (Homo sapiens, UniProt Q9NWZ3).
T2 construct: His-TEV-IRAK4 (1-460); His (N); TEV cleavage site (N)
T2 sequence (Q9NWZ3 1-460): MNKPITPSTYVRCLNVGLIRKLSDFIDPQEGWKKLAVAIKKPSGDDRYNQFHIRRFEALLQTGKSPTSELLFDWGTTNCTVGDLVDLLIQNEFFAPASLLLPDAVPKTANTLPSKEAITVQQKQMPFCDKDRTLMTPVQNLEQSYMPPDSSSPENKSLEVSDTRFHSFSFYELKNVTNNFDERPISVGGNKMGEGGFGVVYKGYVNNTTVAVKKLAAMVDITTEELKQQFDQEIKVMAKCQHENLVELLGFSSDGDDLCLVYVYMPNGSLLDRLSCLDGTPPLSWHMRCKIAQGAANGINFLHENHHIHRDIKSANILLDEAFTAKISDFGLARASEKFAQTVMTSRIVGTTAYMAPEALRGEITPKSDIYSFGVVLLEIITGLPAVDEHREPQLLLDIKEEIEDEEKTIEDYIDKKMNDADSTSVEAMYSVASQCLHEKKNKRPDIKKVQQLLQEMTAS
The experiment in a line: IRAK4 enzymatic assay (ADP-Glo luminescence). The format is biochemical. The settings on record: purified human recombinant His-TEV-IRAK4 (1-460), ATP 2 μM. An outline of the steps: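 Recombinant His-TEV-IRAK4 (1-460) at 0.3 μg/ml preincubated 15 min at RT with compounds (10 μM to 0.5 nM) in Hepes pH 7.0 buffer with MgCl2/MnCl2. Reaction started with 2 μM ATP and 300 nM STK1-biotin peptide, run 2 h at RT. ADP formed read by ADP-Glo luminescence.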

T1 sequence (P51617 194-712): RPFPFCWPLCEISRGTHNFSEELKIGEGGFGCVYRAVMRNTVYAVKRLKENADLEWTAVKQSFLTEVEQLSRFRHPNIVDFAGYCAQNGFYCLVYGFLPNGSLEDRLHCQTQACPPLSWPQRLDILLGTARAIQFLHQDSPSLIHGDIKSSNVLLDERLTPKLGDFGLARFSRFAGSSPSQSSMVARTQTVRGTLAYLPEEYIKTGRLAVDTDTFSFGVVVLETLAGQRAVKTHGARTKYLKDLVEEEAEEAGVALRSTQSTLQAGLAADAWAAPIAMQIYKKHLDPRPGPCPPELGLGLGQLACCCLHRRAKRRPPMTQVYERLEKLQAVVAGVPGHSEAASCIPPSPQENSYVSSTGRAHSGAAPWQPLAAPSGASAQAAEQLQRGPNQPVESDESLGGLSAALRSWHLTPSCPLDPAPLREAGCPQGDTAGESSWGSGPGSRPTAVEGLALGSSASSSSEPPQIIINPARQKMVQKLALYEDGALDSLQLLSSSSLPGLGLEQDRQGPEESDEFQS

As to `O=C(/N=c1\[nH]c2cc(N3CCOCCC3=O)ccc2n1CCCO)c1cccc(C(F)F)c1` [Example 187, (E)-3-(difluoromethyl)-N-(1-(3-hydroxypropyl)-5-(5-oxo-1,4-oxazepan-4-yl)-1H-benzo[d]imidazol-2(3H)-ylidene)benzamide], the concentration for half-maximal inhibition (IC50) on IRAK1 and at IRAK4 was ≤ 100 nM each time.

As for `CC1(C)C(=O)N(c2ccc3c(c2)[nH]/c(=N\C(=O)c2cccc(C(F)F)c2)n3CCCO)CCN1C1CC1` [Example 188, (E)-N-(5-(4-cyclopropyl-3,3-dimethyl-2-oxopiperazin-1-yl)-1-(3-hydroxypropyl)-1H-benzo[d]imidazol-2(3H)-ylidene)-3-(difluoromethyl)benzamide], the IC50 on IRAK1 and at IRAK4 was ≤ 100 nM each time.

Take `O=C(/N=c1\[nH]c2cc(N3C(=O)COCC34CC4)ccc2n1CCCO)c1cccc(C(F)(F)F)c1` [Example 189, (E)-N-(1-(3-hydroxypropyl)-5-(5-oxo-7-oxa-4-azaspiro[2.5]octan-4-yl)-1H-benzo[d]imidazol-2(3H)-ylidene)-3-(trifluoromethyl)benzamide]: the IC50 on IRAK1 and on IRAK4 was ≤ 100 nM each time.

Take `O=C(/N=c1\[nH]c2cc(N3C(=O)COCC34CC4)ccc2n1CCCO)c1cccc(C(F)F)c1` [Example 190, (E)-3-(difluoromethyl)-N-(1-(3-hydroxypropyl)-5-(5-oxo-7-oxa-4-azaspiro[2.5]octan-4-yl)-1H-benzo[d]imidazol-2(3H)-ylidene)benzamide]: the IC50 at IRAK1 and on IRAK4 was ≤ 100 nM in each case.

On to `O=C(/N=c1\[nH]c2cc(N3CCN(C4CC4)CCC3=O)ccc2n1CCCO)c1cccc(C(F)(F)F)c1` [Example 191, (E)-N-(5-(4-cyclopropyl-7-oxo-1,4-diazepan-1-yl)-1-(3-hydroxypropyl)-1H-benzo[d]imidazol-2(3H)-ylidene)-3-(trifluoromethyl)benzamide], for which the IC50 at IRAK1 is 100 to 1000 nM; on IRAK4, ≤ 100 nM.

With `O=C(/N=c1\[nH]c2cc(N3CCCN(C4CC4)CC3=O)ccc2n1CCCO)c1cccc(C(F)(F)F)c1` [Example 192, (E)-N-(5-(4-cyclopropyl-2-oxo-1,4-diazepan-1-yl)-1-(3-hydroxypropyl)-1H-benzo[d]imidazol-2(3H)-ylidene)-3-(trifluoromethyl)benzamide], the IC50 on IRAK1 is 100 to 1000 nM; on IRAK4 it was ≤ 100 nM.

With `O=C(/N=c1\[nH]c2cc(-n3ccccc3=O)ccc2n1CCCO)c1cccc(C(F)(F)F)c1` [Example 193, (E)-N-(1-(3-hydroxypropyl)-5-(2-oxopyridin-1(2H)-yl)-1H-benzo[d]imidazol-2(3H)-ylidene)-3-(trifluoromethyl)benzamide], the values for the IC50 at IRAK1 and at IRAK4 were 100 to 1000 nM and ≤ 100 nM, respectively.

Regarding `O=C(/N=c1\[nH]c2cc(-n3ccccc3=O)ccc2n1CCCO)c1cccc(C(F)F)c1` [Example 194, (E)-3-(difluoromethyl)-N-(1-(3-hydroxypropyl)-5-(2-oxopyridin-1(2H)-yl)-1H-benzo[d]imidazol-2(3H)-ylidene)benzamide], the IC50 is 100 to 1000 nM at IRAK1 and ≤ 100 nM at IRAK4.

`CC1(C)C(=O)N(c2ccc3c(c2)[nH]/c(=N\C(=O)c2cccc(C(F)F)c2)n3CCCO)CCN1CCO` [Example 195, (E)-3-(difluoromethyl)-N-(5-(4-(2-hydroxyethyl)-3,3-dimethyl-2-oxopiperazin-1-yl)-1-(3-hydroxypropyl)-1H-benzo[d]imidazol-2(3H)-ylidene)benzamide]: the IC50 is 100 to 1000 nM at IRAK1 and ≤ 100 nM at IRAK4.

Consider `CC1(C)COC(=O)N1c1ccc2c(c1)[nH]/c(=N\C(=O)c1cccc(C(F)F)c1)n2CCCO` [Example 196, (E)-3-(difluoromethyl)-N-(5-(4,4-dimethyl-2-oxooxazolidin-3-yl)-1-(3-hydroxypropyl)-1H-benzo[d]imidazol-2(3H)-ylidene)benzamide], for which the IC50 on IRAK1 was 100 to 1000 nM; at IRAK4 it was ≤ 100 nM.

Regarding `O=C(/N=c1\[nH]c2cc(N3C(=O)CN(C4CC4)CC34CC4)ccc2n1CCCO)c1cccc(C(F)(F)F)c1` [Example 197, (E)-N-(5-(7-cyclopropyl-5-oxo-4,7-diazaspiro[2.5]octan-4-yl)-1-(3-hydroxypropyl)-1H-benzo[d]imidazol-2(3H)-ylidene)-3-(trifluoromethyl)benzamide], the IC50 on IRAK1 and at IRAK4 was ≤ 100 nM throughout.

Consider `O=C(/N=c1\[nH]c2cc(N3C(=O)CN(C4CC4)CC34CC4)ccc2n1CCCO)c1cccc(C(F)F)c1` [Example 198, (E)-N-(5-(7-cyclopropyl-5-oxo-4,7-diazaspiro[2.5]octan-4-yl)-1-(3-hydroxypropyl)-1H-benzo[d]imidazol-2(3H)-ylidene)-3-(difluoromethyl)benzamide], for which the IC50 at IRAK1 and on IRAK4 was ≤ 100 nM each time.

As for `CC1(C)CN(c2ccc3c(c2)[nH]/c(=N\C(=O)c2cccc(C(F)(F)F)c2)n3CCCO)C(=O)O1` [Example 199, (E)-N-(5-(5,5-dimethyl-2-oxooxazolidin-3-yl)-1-(3-hydroxypropyl)-1H-benzo[d]imidazol-2(3H)-ylidene)-3-(trifluoromethyl)benzamide], the IC50 was 100 to 1000 nM on IRAK1 and ≤ 100 nM at IRAK4.

On to `CC1(C)CN(c2ccc3c(c2)[nH]/c(=N\C(=O)c2cccc(C(F)F)c2)n3CCCO)C(=O)O1` [Example 200, (E)-3-(difluoromethyl)-N-(5-(5,5-dimethyl-2-oxooxazolidin-3-yl)-1-(3-hydroxypropyl)-1H-benzo[d]imidazol-2(3H)-ylidene)benzamide], for which the IC50 on IRAK1 is 100 to 1000 nM; at IRAK4, ≤ 100 nM.

For `O=C(/N=c1\[nH]c2cc(-n3ncccc3=O)ccc2n1CCCO)c1cccc(C(F)(F)F)c1` [Example 201, (E)-N-(1-(3-hydroxypropyl)-5-(6-oxopyridazin-1(6H)-yl)-1H-benzo[d]imidazol-2(3H)-ylidene)-3-(trifluoromethyl)benzamide], the IC50 on IRAK1 and on IRAK4 was ≤ 100 nM throughout.

In the case of `[2H]C([2H])([2H])Oc1cc2c(cc1N1CCOCC1=O)[nH]/c(=N\C(=O)c1cccc(C(F)(F)F)c1)n2CCCO` [Example 202, (E)-N-(1-(3-hydroxypropyl)-6-(trideuteromethoxy)-5-(3-oxomorpholino)-1H-benzo[d]imidazol-2(3H)-ylidene)-3-(trifluoromethyl)benzamide], the IC50 on IRAK1 and at IRAK4 was ≤ 100 nM throughout.

On to `[2H]C([2H])([2H])Oc1cc2c(cc1N1CCOCC1=O)[nH]/c(=N\C(=O)c1cccc(C(F)F)c1)n2CCCO` [Example 203, (E)-3-(difluoromethyl)-N-(1-(3-hydroxypropyl)-6-(trideuteromethoxy)-5-(3-oxomorpholino)-1H-benzo[d]imidazol-2(3H)-ylidene)benzamide], for which the IC50 on IRAK1 and on IRAK4 was ≤ 100 nM throughout.

As to `[2H]C([2H])([2H])Oc1cc2c(cc1N1CCCOC1=O)[nH]/c(=N\C(=O)c1cccc(C(F)(F)F)c1)n2CCCO` [Example 204, (E)-N-(1-(3-hydroxypropyl)-6-(trideuteromethoxy)-5-(2-oxo-1,3-oxazinan-3-yl)-1H-benzo[d]imidazol-2(3H)-ylidene)-3-(trifluoromethyl)benzamide], the IC50 at IRAK1 and at IRAK4 was ≤ 100 nM throughout.

Consider `[2H]C([2H])([2H])Oc1cc2c(cc1N1CCCOC1=O)[nH]/c(=N\C(=O)c1cccc(C(F)F)c1)n2CCCO` [Example 205, (E)-3-(difluoromethyl)-N-(1-(3-hydroxypropyl)-6-(trideuteromethoxy)-5-(2-oxo-1,3-oxazinan-3-yl)-1H-benzo[d]imidazol-2(3H)-ylidene)benzamide], for which the IC50 at IRAK1 and on IRAK4 was ≤ 100 nM throughout.

For the molecule `COc1cc2c(cc1N1CCCOC1=O)[nH]/c(=N\C(=O)c1cccc(C(F)(F)F)c1)n2CCCO` [Example 206, (E)-N-(1-(3-hydroxypropyl)-6-methoxy-5-(2-oxo-1,3-oxazinan-3-yl)-1H-benzo[d]imidazol-2(3H)-ylidene)-3-(trifluoromethyl)benzamide], the IC50 on IRAK1 and at IRAK4 was ≤ 100 nM throughout.

As to `COc1cc2c(cc1N1CCCOC1=O)[nH]/c(=N\C(=O)c1cccc(C(F)F)c1)n2CCCO` [Example 207, (E)-3-(difluoromethyl)-N-(1-(3-hydroxypropyl)-6-methoxy-5-(2-oxo-1,3-oxazinan-3-yl)-1H-benzo[d]imidazol-2(3H)-ylidene)benzamide], the IC50 at IRAK1 and at IRAK4 was ≤ 100 nM each time.

On to `O=C(/N=c1\[nH]c2cc(N3CCOCC3=O)c(C3CC3)cc2n1CCCO)c1cccc(C(F)(F)F)c1` [Example 208, (E)-N-(6-cyclopropyl-1-(3-hydroxypropyl)-5-(3-oxomorpholino)-1H-benzo[d]imidazol-2(3H)-ylidene)-3-(trifluoromethyl)benzamide], for which the IC50 on IRAK1 and at IRAK4 was ≤ 100 nM throughout.
